In patent publication US10030016B2 (Sunesis Pharmaceuticals, Inc., priority 2009, dated 2018) one finds IC50 and EC50 data, which are given here for 20 molecules.

The IC50 is the midpoint of a concentration-inhibition curve. By EC50 is commonly meant the concentration needed to bring the measured effect to its halfway point.

In one experiment the target is PDK1 (Homo sapiens (Human), UniProt O15530). Nature of the experiment: PDK1 kinase assay (coupled PDK1/AKT/FAM-crosstide assay, IMAP fluorescence polarization). It counts as biochemical. In outline:
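Coupled cascade: 0.75 nM PDK1 (51-359) → 10 nM AKT2 (140-467-PIFtide) → 100 nM FAM-crosstide. ATP 40 μM, 25° C, 30 min. IMAP FP (ex 485/em 530), 2 h binding. ΔmP vs conc, 4-param fit.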

Experiment [1] has as its system phospho-akt (Thr308) in PC-3 cells. Nature of the experiment: Inhibition of phospho-akt (Thr308) in PC-3 cells, MSD phospho-akt 308 ELISA kit. It is filed as cell-based. The settings on record: 2 hours, no serum, read-out: EC50. In outline: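 Read-out is MSD electrochemiluminescence of Akt phosphorylated at Thr308 in lysates of PC-3 cells treated 2 h with compound in serum-free medium. Wortmannin at 5 μM defined the low control and DMSO the high control.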

[2] abbreviates: inhibition of phospo-PDK1 in vitro.
The mark [3] stands for this setting: Homo sapiens, PC-3, 2 h, inhibition of P308 Akt in PC-3 cells, MSD.
[4] abbreviates: Homo sapiens, inhibition of P308 Akt in PC-3 cells, MSD.
Where [5] appears, read: Homo sapiens, inhibition of P308 Akt in PC-3 cells using MSD.

Structures are written as SMILES. Counter-ions that a name gives are not always drawn. Like-named read-outs stand apart in the source and are kept apart here.

Sequence of PDK1 (O15530 51-359): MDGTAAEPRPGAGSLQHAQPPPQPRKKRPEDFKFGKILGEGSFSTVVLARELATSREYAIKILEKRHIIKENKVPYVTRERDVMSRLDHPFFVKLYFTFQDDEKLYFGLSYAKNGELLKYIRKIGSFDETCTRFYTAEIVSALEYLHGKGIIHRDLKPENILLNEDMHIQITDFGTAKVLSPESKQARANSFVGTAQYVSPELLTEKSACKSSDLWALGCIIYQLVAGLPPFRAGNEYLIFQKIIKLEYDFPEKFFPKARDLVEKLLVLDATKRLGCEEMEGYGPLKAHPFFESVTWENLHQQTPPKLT

As for `C/C=C/c1cnc(NCc2ccc(-c3ccc4ncnc(N)c4c3)s2)c(C(=O)NCc2ccc(F)c(F)c2)n1` [Ex. 10.6, 3-({[5-(4-aminoquinazolin-6-yl)thiophen-2-yl]methyl}amino)-N-(3,4-difluorobenzyl)-6-[(1E)-prop-1-en-1-yl] pyrazine-2-carboxamide], the concentration for half-maximal inhibition (IC50) against PDK1 (setting [2]) lay within 0.1 to 1 µM. Moreover, the half-maximal effective concentration (EC50) in experiment [1] (setting [3]) is 1 to 10 µM.

At PDK1 (setting [2]), `N#Cc1cnc(NCc2ccc(-c3cnc4[nH]nc(N)c4c3)cc2)c(C(=O)NCc2ccc(F)c(F)c2)n1` [Example 31, 3-(4-(3-amino-1H-pyrazolo[3,4-b]pyridin-5-yl)benzylamino)-6-cyano-N-(3,4-difluorobenzyl) pyrazine-2-carboxamide] returned a 50% inhibitory concentration (IC50) below 0.1 µM. The concentration giving a half-maximal response (EC50) in experiment [1] (setting [4]) is below 1 µM.

The molecule `C[C@H](NC(=O)c1cccnc1NCc1ccc(-c2ccc3ncnc(N)c3c2)s1)c1ccccn1` [Example 3.58, (S)-2-(((5-(4-aminoquinazolin-6-yl)thiophen-2-yl)methyl)amino)-N-(1-(pyridin-2-yl)ethyl) nicotinamide (TFA salt)] gave an IC50 against PDK1 (setting [2]) of 0.1 to 1 µM. Further, in experiment [1] (setting [3]), the EC50 fell in the range of 1 to 10 µM.

For the molecule `COc1ccc([C@H](COc2ccc([N+](=O)[O-])c(N)c2)Nc2ncccc2C(=O)N[C@@H](C)c2ccc(F)c(F)c2)cc1` [Example 16.5, 2-((R)-2-(3-amino-4-nitrophenoxy)-1-(4-methoxyphenyl)ethylamino)-N-((S)-1-(3,4-difluorophenyl)ethyl)nicotinamide], the IC50 on PDK1 (setting [2]) is above 5 µM. The EC50 in experiment [1] (setting [4]) is 1 to 10 µM.

In turn, `COc1cccc(NC(=O)c2cc(C(F)(F)F)cnc2NCc2ccc(-c3cnc4[nH]nc(N)c4c3)cc2)c1` [Example 301, 2-(4-(3-amino-1H-pyrazolo [3,4-b]pyridin-5-yl)benzylamino)-N-(3-methoxyphenyl)-5-(trifluoromethyl)nicotinamide] yielded a 50% inhibitory concentration (IC50) against PDK1 (inhibition of PDK1 in vitro) below 0.1 µM. Besides, the concentration for a half-maximal effect (EC50) in experiment [1] (setting [5]) is 1 to 10 µM.

The molecule `Cc1cc(-c2ccc(CNc3ncc(C(F)(F)F)cc3C(=O)NCc3ccc(F)c(F)c3)cc2)cnc1N` [Example 355, 2-(4-(6-amino-5-methylpyridin-3-yl)benzylamino)-N-(3,4-difluorobenzyl)-5-(trifluoromethyl)nicotinamide] registered an IC50 at PDK1 (inhibition of PDK1 in vitro) below 0.1 µM. The concentration for a half-maximal effect (EC50) in experiment [1] (setting [5]) was in the range of 1 to 10 µM.

`C[C@H](NC(=O)c1cc(C#N)cnc1N[C@@H](COc1ccc2[nH]c(=O)[nH]c2c1)c1ccccc1)c1ccc(F)cc1` [Example 16.10] returned an IC50 against PDK1 (setting [2]) of 0.1 to 1 µM. In experiment [1] (setting [4]), the EC50 was below 1 µM.

The molecule `CC(=O)Nc1ccc(-c2ccc(CNc3ncc(C#N)cc3C(=O)N[C@@H](C)c3ccc(F)cc3)cc2)cn1` [Example 105, (S)-2-(4-(6-acetamido-pyridin-3-yl)benzylamino)-5-cyano-N-(1-(4-fluorophenyl)ethyl) nicotinamide] registered a 50% inhibitory concentration (IC50) at PDK1 (inhibition of PDK1 in vitro) below 0.1 µM. Besides, in experiment [1] (setting [5]), the EC50 is below 1 µM.

Turning to `C[C@H](NC(=O)c1cccnc1N[C@@H](COc1ccc2[nH]c(=O)[nH]c2c1)c1cccc(Cl)c1)c1ccc(F)c(F)c1` [Example 16.9, 2-((R)-1-(3-chlorophenyl)-2-(2-oxo-2,3-dihydro-1H-benzo[d]imidazol-5-yloxy)ethylamino)-N-((S)-1-(3,4-difluorophenyl)ethyl)nicotinamide], on PDK1 (setting [2]), the half-maximal inhibitory concentration (IC50) fell in the range of 0.1 to 1 µM. The EC50 in experiment [1] (setting [4]) was below 1 µM.

For `CC(C)c1cnc(NCc2ccc(-c3ccc4ncnc(N)c4c3)s2)c(C(=O)NCc2ccc(F)c(F)c2)n1` [Ex. 10.4, 3-({[5-(4-aminoquinazolin-6-yl)thiophen-2-yl]methyl}amino)-N-(3,4-difluorobenzyl)-6-(propan-2-yl)pyrazine-2-carboxamide], the IC50 against PDK1 (setting [2]) is 0.1 to 1 µM. For the same molecule, the 50% effective concentration (EC50) in experiment [1] (setting [4]) is above 10 µM.

`CC(C)Oc1cc(CNc2ncccc2C(=O)NCC(F)(F)F)cc(-c2c[nH]c3ncc(C(=O)NC4CC4)cc23)c1` [Example 4.1.5, N-cyclopropyl-3-{3-(propan-2-yloxy)-5-[({3-[(2,2,2-trifluoroethyl)carbamoyl]pyridin-2-yl}amino)methyl]phenyl}-1H-pyrrolo[2,3-b] pyridine-5-carboxamide] came in with an IC50 on PDK1 (setting [2]) above 5 µM. In experiment [1] (setting [4]), the half-maximal effective concentration (EC50) was above 10 µM.

Molecule `C[C@H](NC(=O)c1nc(C#N)cnc1NCc1ccc(-c2cn(C)c3ncnc(N)c23)cc1)c1ccc(F)c(F)c1` [Example 27, (S)-3-(4-(4-amino-7-methyl-7H-pyrrolo[2,3-d]pyrimidin-5-yl)benzylamino)-6-cyano-N-(1-(3,4-difluorophenyl)ethyl)pyrazine-2-carboxamide] displayed an IC50 against PDK1 (setting [2]) below 0.1 µM. Further, the 50% effective concentration (EC50) in experiment [1] (setting [4]) is below 1 µM.

The molecule `N#Cc1cnc(NCc2ccc(-c3ccc4ncnc(N)c4c3)s2)c(C(=O)NCc2ccc(F)c(F)c2)c1` [Ex. 8.8.1, 2-(((5-(4-aminoquinazolin-6-yl)thiophen-2-yl)methyl)amino)-5-cyano-N-(3,4-difluorobenzyl)nicotinamide] registered an IC50 on PDK1 (setting [2]) below 0.1 µM. Also, in experiment [1] (setting [4]), the EC50 was below 1 µM.

Regarding `C[C@H](NC(=O)c1cc(C#N)cnc1NCc1ccc(-c2ncnc(N)c2F)cc1)c1ccc(F)cc1` [Example 101, (S)-2-(4-(6-amino-5-fluoropyrimidin-4-yl)-benzylamino)-5-cyano-N-(1-(4-fluorophenyl)ethyl)nicotinamide], the IC50 on PDK1 (inhibition of PDK1 in vitro) was above 5 µM. Besides, in experiment [1] (setting [5]), the EC50 was above 10 µM.

Consider `C[C@H](NC(=O)c1cccnc1NCc1ccc(-c2ccc3ncc(-n4ccnc4N)nc3c2)s1)c1ccc(F)c(F)c1` [Example 4.32, (S)-2-(((5-(3-(2-amino-1H-imidazol-1-yl)quinoxalin-6-yl)thiophen-2-yl)methyl)amino)-N-(1-(3,4-difluorophenyl)ethyl) nicotinamide], for which the IC50 on PDK1 (setting [2]) was 0.1 to 1 µM. Further, in experiment [1] (setting [3]), the EC50 was above 10 µM.

On PDK1 (setting [2]), `C[C@@H](c1ccc(F)c(F)c1)n1cnc2ccnc(NCc3ccc(-c4cc5c(N)ncnc5cn4)s3)c2c1=O` [Example 7.11, 5-({[5-(4-aminopyrido [3,4-d]pyrimidin-6-yl)thiophen-2-yl]methyl}amino)-3-[(1S)-1-(3,4-difluorophenyl)ethyl] pyrido[4,3-d]pyrimidin-4(3H)-one] had a concentration for half-maximal inhibition (IC50) of 0.1 to 1 µM. Besides, the half-maximal effective concentration (EC50) in experiment [1] (setting [3]) was below 1 µM.

Turning to `Cn1cnc2cnc(-c3ccc(CNc4ncccc4C(=O)NCc4ccc(F)c(F)c4)s3)cc21` [Example 8.14.3, N-(3,4-difluorobenzyl)-2-({[5-(1-methyl-1H-imidazo [4,5-c]pyridin-6-yl)thiophen-2-yl]methyl}amino)pyridine-3-carboxamide], the IC50 at PDK1 (setting [2]) is above 5 µM. The EC50 in experiment [1] (setting [4]) lay within 1 to 10 µM.

`C[C@H](NC(=O)c1nc(C#N)cnc1NCc1ccc(-c2cnc(N)c(CCC3CCNC3)n2)cc1)c1ccc(F)c(F)c1` (single isomer, unassigned) [Example 80]: the half-maximal inhibitory concentration (IC50) against PDK1 (inhibition of PDK1 in vitro) is below 0.1 µM. Also, in experiment [1] (inhibition of P308 Akt in PC-3 cells using MSD), the concentration giving a half-maximal response (EC50) lay in the range of 1 to 10 µM.

The molecule `N#Cc1cnc(NCc2ccc(-c3ccc(N)nc3)cc2)c(C(=O)NCc2ccc(F)c(F)c2)c1` [Example 368, 2-(4-(6-aminopyridin-3-yl)benzylamino)-5-cyano-N-(3,4-difluorobenzyl) nicotinamide] returned an IC50 against PDK1 (inhibition of PDK1 in vitro) below 0.1 µM. The EC50 in experiment [1] (setting [5]) is below 1 µM.

`C[C@H](NC(=O)c1cc(C#N)cnc1NCc1ccc(-c2ccn3ncnc(N)c23)cc1)c1ccc(F)cc1` [Example 174, 2-[4-(4-Amino-pyrrolo[2,1-f][1,2,4]triazin-5-yl)-benzylamino]-5-cyano-N-[(S)-1-(4-fluoro-phenyl)-ethyl]-nicotinamide] had an IC50 on PDK1 (inhibition of PDK1 in vitro) below 0.1 µM. In experiment [1] (setting [5]), the 50% effective concentration (EC50) was below 1 µM.
